Data published in patent US8268998B2, “Pyrrolotriazine kinase inhibitors” (Bristol-Myers Squibb Company, priority 2006, dated 2012).
pIC50: −log10 of the molar value.

Legend:
[1] = molecular target: T1, TrkA (Homo sapiens, UniProt P04629); experiment: TrkA tyrosine kinase inhibition assay (recombinant enzyme, polyGluTyr phosphorylation, 33P); format: biochemical; details: kinase domain of human TrkA, substrate PGT 0.1 mg/ml, 30 uM ATP, 1 hour at 30° C.
T1 construct: The kinase domain of the human TrkA receptor is expressed in Sf9 insect cells as a histidine (His)-fusion protein; His; made in house; host or cells: Sf9 insect cells (baculovirus)
T1 sequence (P04629 510-781 limits assumed): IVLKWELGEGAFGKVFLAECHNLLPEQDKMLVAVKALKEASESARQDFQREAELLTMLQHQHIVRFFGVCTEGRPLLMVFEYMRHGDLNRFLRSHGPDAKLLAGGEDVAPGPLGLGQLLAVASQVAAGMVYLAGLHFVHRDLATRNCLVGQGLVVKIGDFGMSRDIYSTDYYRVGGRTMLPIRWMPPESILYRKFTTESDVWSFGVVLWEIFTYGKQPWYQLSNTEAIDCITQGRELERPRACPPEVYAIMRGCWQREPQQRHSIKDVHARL
Source text: The ability of compounds of the invention to inhibit tyrosine kinase activity of TrkA may be measured using a recombinant enzyme in an assay that measures the ability of compounds to inhibit the phosphorylation of the exogenous substrate, polyGluTyr (PGT, 4:1). The kinase domain of the human TrkA receptor is expressed in Sf9 insect cells as a histidine (His)-fusion protein using a baculovirus expression system. The protein is purified from the lysates of these cells using an Ni-NTA affinity column. After the recombinant enzyme is purified, it is activated by incubation with cold ATP. The enzyme assay is performed in a 96-well plate. Test compounds are first dissolved in dimethylsulfoxide (DMSO) and then serially-diluted in a 96-well plate. The serially-diluted compounds are transferred to the 96-well assay plate so that the final concentration of DMSO in the enzyme assay is 1.64%. All assay components are diluted in phosphorylation buffer (20 mm MOPS, 10 mM MgCl2, 1 mM EDTA, 0.015% Brij-35, 0.1 mg/ml BSA, 0.0025% Beta-Mercaptoethanol). The recombinant enzyme is added to the assay plate containing test compound and the reaction is initiated with a substrate solution containing a final concentration of 0.1 mg/ml PGT, 30 uM ATP, and 0.008mCi/ml ^33P-gammaATP (3000Ci/mmol). After a 1 hour incubation at 30° C., the reaction is terminated with 10% TCA and incubated at 4° C. for 1 hour. The reaction is filtered onto a Unifilter® GF/C™ filter plate that has been presoaked with 0.1M NaPyrophosphate. Microscint-20 is then added to the dried filter plate and the captured ^33P-phosphorylated PGT is quantitated on a microscintillation plate counter (TopCount•NXT™). Inhibition of the kinase enzymatic activity by the test compound is detected by a reduction in scintillation, and the concentration of compound that is required to inhibit the signal by 50% is reported as the IC50 value for the test compound.

[2] = molecular target: T2, TrkB (Homo sapiens, UniProt Q16620); experiment: TrkB tyrosine kinase inhibition assay (recombinant enzyme, polyGluTyr phosphorylation, 33P); format: biochemical; details: kinase domain of human TrkB (amino acids 526-838), substrate PGT 0.1 mg/ml, 30 uM ATP, 1 hour at 30° C.
T2 construct: The kinase domain of the human TrkB receptor (amino acids 526-838); His; purchased Invitrogen; host or cells: insect cells
T2 sequence (Q16620 510-822): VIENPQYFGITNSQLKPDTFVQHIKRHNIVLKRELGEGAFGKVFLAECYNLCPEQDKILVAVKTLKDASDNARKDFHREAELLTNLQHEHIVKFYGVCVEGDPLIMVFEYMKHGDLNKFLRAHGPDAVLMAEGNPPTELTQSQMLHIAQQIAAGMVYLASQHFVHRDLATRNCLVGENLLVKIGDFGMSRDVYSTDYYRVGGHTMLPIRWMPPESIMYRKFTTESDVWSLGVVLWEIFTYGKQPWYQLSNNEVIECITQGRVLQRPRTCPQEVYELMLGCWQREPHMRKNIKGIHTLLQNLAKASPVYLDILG
Method: The ability of compounds of the invention to inhibit tyrosine kinase activity of TrkB may be measured using a recombinant enzyme in an assay that measures the ability of compounds to inhibit the phosphorylation of the exogenous substrate, polyGluTyr (PGT, 4:1). The kinase domain of the human TrkB receptor (amino acids 526-838) is expressed in insect cells as a histidine (His)-fusion protein and is commercially available from Invitrogen™. The enzyme assay is performed in a 96-well plate. Test compounds are first dissolved in dimethylsulfoxide (DMSO) and then serially-diluted in a 96-well plate. The serially-diluted compounds are transferred to the 96-well assay plate so that the final concentration of DMSO in the enzyme assay is 1.64%. All assay components are diluted in phosphorylation buffer (20 mm MOPS, 10 mM MgCl2, 1 mM EDTA, 0.015% Brij-35, 0.1 mg/ml BSA, 0.0025% Beta-Mercaptoethanol). The recombinant enzyme is added to the assay plate containing test compound and the reaction is initiated with a substrate solution containing a final concentration of 0.1 mg/ml PGT, 30 uM ATP, and 0.008mCi/ml ^33P-gammaATP (3000 Ci/mmol). After a 1 hour incubation at 30° C., the reaction is terminated with 10% TCA and incubated at 4° C. for 1 hour. The reaction is filtered onto a Unifilter® GF/C™ filter plate that has been pre-soaked with 0.1M NaPyrophosphate. Microscint-20 is then added to the dried filter plate and the captured ^33P-phosphorylated PGT is quantitated on a microscintillation plate counter (TopCount•NXT™). Inhibition of the kinase enzymatic activity by the test compound is detected by a reduction in scintillation, and the concentration of compound that is required to inhibit the signal by 50% is reported as the IC50 value for the test compound.

Compound	pIC50 [1]	pIC50 [2]
CC(C)[C@@H](CO)Nc1nc(Nc2cc(C3CC3)[nH]n2)nn2cccc12 [Example 24, (2S)-2-((2-((5-cyclopropyl-1H-pyrazol-3-yl)amino)pyrrolo[2,1-ƒ][1,2,4]triazin-4-yl)amino)-3-methyl-1-butanol]	7.44	7.19
CCCC[C@H](C)Nc1nc(Nc2cc(C3CC3)[nH]n2)nn2cccc12 [Example 21, N^2-(5-cyclopropyl-1H-pyrazol-3-yl)-N^4-((1S)-1-methylpentyl)pyrrolo[2,1-ƒ][1,2,4]triazine-2,4-diamine]	9.30	8.70
C[C@H](Nc1nc(Nc2cc(C3CC3)[nH]n2)nn2cccc12)c1ccc(F)cc1 [Example 1, N^2-(5-cyclopropyl-1H-pyrazol-3-yl)-N^4-((1S)-1-(4-fluorophenyl)ethyl)pyrrolo[2,1-f][1,2,4]triazine-2,4-diamine]	9.52	9.10
C[C@H](Nc1nc(Nc2cc(C3CC3)[nH]n2)nn2cccc12)C1CCCCC1 [Example 32, N^4-((1S)-1-cyclohexylethyl)-N^2-(5-cyclopropyl-1H-pyrazol-3-yl)pyrrolo[2,1-ƒ][1,2,4]triazine-2,4-diamine]	8.70	8.52
